# Source: patent US20040142929A1, “Derivatives of aryl (or heteroaryl) azolylcarbinoles for the treatment of urinary incontinence” (priority 2001, published 2004)
# Tests used:
# [1] = test system: Urinary incontinence secondary to overactive bladder (detrusor hyperreflexia or instability) or idiopathic urge incontinence; assay: Clinical Study A: placebo controlled clinical trial, 84 days; assay type: in vivo, human
# Description: In a placebo controlled clinical trial 79 patients were randomised. Patients from both genders aged between 18 and 80 years (both inclusive) were included. They had Urinary incontinence secondary to overactive bladder (detrusor hyperreflexia or instability) or idiopathic urge incontinence confirmed by the medical history and urodynamic study.
# The patients were treated within one group with (±)-5-{α-[2-(dimethylamino)ethoxy]benzyl}-1-methyl-1H-pirazole citrate, 400 mg, twice a day, tablets for oral administration, or within another group with placebo in matching tablets, twice a day, for administration by oral route. The patients were treated for 84 days.
# Efficacy was measured by the difference from baseline in the mean number of leakages, micturitions, urgencies and voidings/24 hours as provided by a 7-day frequency-volume chart in the end of study visit
# The primary efficacy analysis was based on the PP population. The treatment groups were compared with respect to the treatment effect, defined as the difference between treatment groups for changes from baseline in the number of voidings per 24 hours.
# (§1) As an addition the percentage of responders was compared based on an analysis of the number of patients having <8 voidings/day or experienced complete dryness or both. The statistical significance was determined.
# [2] = test system: Urinary incontinence secondary to overactive bladder (detrusor hyperreflexia or instability) or idiopathic urge incontinence; assay: Clinical Study B: placebo controlled clinical trial, 84 days; assay type: in vivo, human
# Description: In a placebo controlled clinical trial 135 patients were randomised. Patients from both genders aged between 18 and 80 years (both inclusive) were included. They had Urinary incontinence secondary to overactive bladder (detrusor hyperreflexia or instability) or idiopathic urge incontinence confirmed by the medical history and urodynamic study.
# The patients were treated within one group with […]{α-[2-(dimethylamino)ethoxy]benzyl}-1-methyl-1H-pirazole citrate, 230 mg b.i.d, capsules (meaning 400 mg (±)-5-{α-[2-(dimethylamino)ethoxy]benzyl}-1-methyl-1H-pirazole citrate/capsule) for oral administration (twice daily) or within another group with placebo, matching capsules, […], for administration by oral route. The patients were treated for 84 days.
# Efficacy was measured by the difference from baseline in the mean number of voidings/24 hours as provided by a 7-day frequency-volume chart in the end of study visit.
# The primary efficacy analysis was based on the PP population. […]
# as §1
# [3] = patients, 400 mg citrate twice a day, oral tablets, 84 days, difference from baseline, 7-day frequency-volume chart
SMILES,"improving urge incontinence caused by overactive bladder: efficacy variables compared to placebo ([1]; citrate 400 mg twice a day (equivalent to 230 mg base twice a day), oral route)","mean number of daily leakages compared with placebo [1, 3]","mean number of daily micturitions compared with placebo [1, 3]","mean number of daily urgencies compared with placebo [1, 3]","mean number of daily voidings compared with placebo [1, 3]","percentage of responders (patients having <8 voidings/day or complete dryness or both) versus placebo ([2]; 230 mg b.i.d., oral, FIG. 2)","reduction of the mean number of voidings per 24 hours (change from baseline) ([2]; patients, 230 mg b.i.d. (400 mg citrate/capsule), oral capsules, PP population) [units]","percentage of responders (patients having <8 voidings/day or complete dryness or both) versus placebo ([1]; patients, 400 mg citrate twice a day, oral, 84 days, FIG. 1)"
CN(C)CCOC(c1ccccc1)c1ccnn1C.O=C(O)CC(O)(CC(=O)O)C(=O)O (racemic) [(±)-5-{α-[2-(dimethylamino)ethoxy]benzyl}-1-methyl-1H-pirazole citrate],statistical and clinically significant improvements compared to placebo in the majority of efficacy variables considered,significant reduction,significant reduction,significant reduction,significant reduction,–,–,–
CN(C)CCOC(c1ccccc1)c1ccnn1C.O=C(O)CC(O)(CC(=O)O)C(=O)O (racemic) [(±)-5-{α-[2-(dimethylamino)ethoxy]benzyl}-1-methyl-1H-pirazole],–,–,–,–,–,superior to placebo,5.83,superior to placebo
